# Patent publication US11083725B2 (priority 2014, dated 2021)
# System: NHBE cells
# Test: Biolog metabolic array: substrate use by NHBE cells with or without CA09 infection
# Format: cell-based, human
# Conditions: for Substrate use, 590 nm absorbance normalized to zero hour, 1 hr: Biolog PMM2, 1 hr; for Substrate use, 590 nm absorbance normalized to zero hour, 5 hr: Biolog PMM2, 5 hr; for Substrate use, 590 nm absorbance normalized to zero hour, 7 hr: Biolog PMM2, 7 hr
# [1] = Control (uninfected) NHBE cells
# [2] = Virus (CA09-infected, MOI 1) NHBE cells
# [3] = Virus: CA09-infected NHBE cells, MOI 1, Biolog PMM2
# [4] = Virus (CA09-infected NHBE cells, MOI 1)
# [5] = Virus (CA09, MOI 1) infected NHBE cells
SMILES,"590 nm absorbance normalized to zero hour (substrate use), 1 hr [1]","590 nm absorbance normalized to zero hour (substrate use), 2 hr [1]","590 nm absorbance normalized to zero hour (substrate use), 3 hr [1]","590 nm absorbance normalized to zero hour (substrate use), 4 hr [1]","590 nm absorbance normalized to zero hour (substrate use), 6 hr [1]","590 nm absorbance normalized to zero hour (substrate use), 8 hr [1]","590 nm absorbance normalized to zero hour (substrate use), 9 hr [1]","590 nm absorbance normalized to zero hour (substrate use), 10 hr [1]","590 nm absorbance normalized to zero hour (substrate use), 11 hr [1]","Substrate use, 590 nm absorbance normalized to zero hour, 1 hr [1]","Substrate use, 590 nm absorbance normalized to zero hour, 5 hr [1]","Substrate use, 590 nm absorbance normalized to zero hour, 7 hr [1]","590 nm absorbance normalized to zero hour (substrate use), 1 hr [3]","590 nm absorbance normalized to zero hour (substrate use), 2 hr [3]","590 nm absorbance normalized to zero hour (substrate use), 3 hr [3]","590 nm absorbance normalized to zero hour (substrate use), 4 hr [3]","590 nm absorbance normalized to zero hour (substrate use), 5 hr [3]","590 nm absorbance normalized to zero hour (substrate use), 6 hr [3]","590 nm absorbance normalized to zero hour (substrate use), 7 hr [3]","590 nm absorbance normalized to zero hour (substrate use), 8 hr [3]",further results
O=C(CO)[C@@H](O)[C@H](O)[C@H](O)COP(=O)(O)O [D-Fructose-6-Phosphate],1.03,0.90,0.59,0.97,0.23,0.49,0.97,0.92,0.64,1.03,0.54,1.00,0.59,0.75,0.87,0.94,1.11,1.18,1.27,1.35,"590 nm absorbance normalized to zero hour (substrate use), 1 hr [2]: 0.59; 590 nm absorbance normalized to zero hour (substrate use), 2 hr [2]: 0.75; 590 nm absorbance normalized to zero hour (substrate use), 3 hr [2]: 0.87; 590 nm absorbance normalized to zero hour (substrate use), 4 hr [2]: 0.94; 590 nm absorbance normalized to zero hour (substrate use), 5 hr [2]: 1.11; 590 nm absorbance normalized to zero hour (substrate use), 6 hr [2]: 1.18; 590 nm absorbance normalized to zero hour (substrate use), 7 hr [2]: 1.27; 590 nm absorbance normalized to zero hour (substrate use), 8 hr [2]: 1.35; 590 nm absorbance normalized to zero hour (substrate use), 9 hr [2]: 1.49; 590 nm absorbance normalized to zero hour (substrate use), 10 hr [2]: 1.55; 590 nm absorbance normalized to zero hour (substrate use), 11 hr [2]: 1.65; 590 nm absorbance normalized to zero hour (substrate use), 9 hr [3]: 1.49; 590 nm absorbance normalized to zero hour (substrate use), 10 hr [3]: 1.55; 590 nm absorbance normalized to zero hour (substrate use), 11 hr [3]: 1.65"
O=C(CO)[C@@H](O)[C@H](O)[C@H](O)CO [D-Fructose],2.31,2.22,1.77,2.00,1.51,3.38,4.01,3.99,4.24,2.31,2.59,3.18,0.44,0.58,0.71,0.79,1.00,1.09,1.17,1.26,"590 nm absorbance normalized to zero hour (substrate use), 1 hr [4]: 0.44; 590 nm absorbance normalized to zero hour (substrate use), 2 hr [4]: 0.58; 590 nm absorbance normalized to zero hour (substrate use), 3 hr [4]: 0.71; 590 nm absorbance normalized to zero hour (substrate use), 4 hr [4]: 0.79; 590 nm absorbance normalized to zero hour (substrate use), 5 hr [4]: 1.00; 590 nm absorbance normalized to zero hour (substrate use), 6 hr [4]: 1.09; 590 nm absorbance normalized to zero hour (substrate use), 7 hr [4]: 1.17; 590 nm absorbance normalized to zero hour (substrate use), 8 hr [4]: 1.26; 590 nm absorbance normalized to zero hour (substrate use), 9 hr [4]: 1.43; 590 nm absorbance normalized to zero hour (substrate use), 10 hr [4]: 1.52; 590 nm absorbance normalized to zero hour (substrate use), 11 hr [4]: 1.70; 590 nm absorbance normalized to zero hour (substrate use), 9 hr [3]: 1.43; 590 nm absorbance normalized to zero hour (substrate use), 10 hr [3]: 1.52; 590 nm absorbance normalized to zero hour (substrate use), 11 hr [3]: 1.70"
C[C@@H](O)[C@H](O)[C@H](O)[C@@H](O)C=O [D-Fucose],1.61,1.96,2.02,2.15,2.11,2.49,2.69,2.78,2.97,1.61,2.65,2.19,0.66,0.33,0.67,0.64,0.62,0.65,0.65,0.60,"590 nm absorbance normalized to zero hour (substrate use), 0 hr [1]: 1.00; Substrate use, 590 nm absorbance normalized to zero hour, 0 hr (Control (uninfected) NHBE cells, Biolog PMM2, 0 hr): 1.00; 590 nm absorbance normalized to zero hour (substrate use), 0 hr [4]: 1.00; 590 nm absorbance normalized to zero hour (substrate use), 1 hr [4]: 0.66; 590 nm absorbance normalized to zero hour (substrate use), 2 hr [4]: 0.33; 590 nm absorbance normalized to zero hour (substrate use), 3 hr [4]: 0.67; 590 nm absorbance normalized to zero hour (substrate use), 4 hr [4]: 0.64; 590 nm absorbance normalized to zero hour (substrate use), 5 hr [4]: 0.62; 590 nm absorbance normalized to zero hour (substrate use), 6 hr [4]: 0.65; 590 nm absorbance normalized to zero hour (substrate use), 7 hr [4]: 0.65; 590 nm absorbance normalized to zero hour (substrate use), 8 hr [4]: 0.60; 590 nm absorbance normalized to zero hour (substrate use), 9 hr [4]: 0.52; 590 nm absorbance normalized to zero hour (substrate use), 10 hr [4]: 0.57; 590 nm absorbance normalized to zero hour (substrate use), 11 hr [4]: 0.61; 590 nm absorbance normalized to zero hour (substrate use), 0 hr [3]: 1.00; 590 nm absorbance normalized to zero hour (substrate use), 9 hr [3]: 0.52; 590 nm absorbance normalized to zero hour (substrate use), 10 hr [3]: 0.57; 590 nm absorbance normalized to zero hour (substrate use), 11 hr [3]: 0.61"
O=C[C@H](O)[C@@H](O)[C@@H](O)[C@H](O)CO [D-Galactose],0.95,1.46,1.73,1.56,1.78,2.22,2.53,2.67,2.53,0.95,1.88,2.03,–,–,–,–,–,–,–,–,"Substrate use, 590 nm absorbance normalized to zero hour, 1 hr [5]: 0.91; Substrate use, 590 nm absorbance normalized to zero hour, 5 hr [5]: 1.89; Substrate use, 590 nm absorbance normalized to zero hour, 7 hr [5]: 2.16; 590 nm absorbance normalized to zero hour (substrate use), 1 hr [2]: 0.91; 590 nm absorbance normalized to zero hour (substrate use), 2 hr [2]: 1.21; 590 nm absorbance normalized to zero hour (substrate use), 3 hr [2]: 1.47; 590 nm absorbance normalized to zero hour (substrate use), 4 hr [2]: 1.60; 590 nm absorbance normalized to zero hour (substrate use), 6 hr [2]: 2.03; 590 nm absorbance normalized to zero hour (substrate use), 8 hr [2]: 2.29; 590 nm absorbance normalized to zero hour (substrate use), 9 hr [2]: 2.54; 590 nm absorbance normalized to zero hour (substrate use), 10 hr [2]: 2.63; 590 nm absorbance normalized to zero hour (substrate use), 11 hr [2]: 2.86"
